Reference: patent US7501238B2, “Skin substitutes for irritancy testing” (priority 2001, dated 2009)
Like-named read-outs stand apart in the source and are kept apart here.

Key:
[1] = system: in vitro skin equivalent cultures; conditions: substance added to in vitro cultures, cited from earlier work
skin equivalents = conditions: irritant-treated skin equivalents; 0.2% SDS, 0.005% calcipotriol, 0.025% trans-retinoic acid; cited from earlier work
[2] = system: NIKS organotypic cultures; test: IL-1α secretion by NIKS organotypic cultures after topical irritant (ELISA); format: cell-based, human; conditions: 24 hr at 37° C.
Procedure: (§1) Solutions of SDS (0.1%, 0.2%, and 0.5%) were topically applied to air-exposed NIKS organotypic cultures and incubated for 24 hr at 37° C. After 24 hr, the media underneath the cultures was assayed for IL-1α protein using a Quantikine IL-1α ELISA kit (R&D Systems, Minneapolis, Minn.) and cultures were incubated with MTS reagent (Promega Corp., Madison, Wis.) to determine cell viability. Media from untreated cultures contained 25 pg/ml IL-1α, whereas the concentration of IL-1α in cultures treated with 0.1%, 0.2% or 0.5% SDS was 290, 375 and 275 pg/ml respectively.

[3] = system: NIKS organotypic cultures; test: MTS cell viability of irritant-treated NIKS organotypic cultures; format: cell-based, human; conditions: 0.5% SDS, 24 hr
Procedure: as §1
These values correspond well with published IL-1α responses in SDS-exposed skin equivalents (Perkins et al, Toxicological Sciences, 48:218 [1999]).

[4] = system: IL-8 promoter sequences between −1472 and +19 in tracheobronchial epithelial cells; conditions: cited from earlier work

Molecule	Lipid Composition [1]	expression and secretion of the pro-inflammatory cytokines IL-1α and IL-8 (skin equivalents)	other results
EGF: epidermal growth factor (NSDSECPLSHDGYCLHDGVCMYIEALDKYACNCVVGYIGERCQYRDLKWWELR; Epidermal growth factor; UniProt P01133 971-1023, looked up)	High triglycerides		
O=C1O[C@H]([C@@H](O)CO)C(O)=C1O [Vitamin C]	Major		Lipid Composition ([1]; listed as vitamin C): improved the lipid profile
CCCCCCCCCCCCOS(=O)(=O)[O-].[Na+] [SDS]		induce expression and secretion	concentration of IL-1α in media ([2]; 0.1% SDS applied topically): 290 pg/mL; concentration of IL-1α in media ([2]; 0.2% SDS applied topically): 375 pg/mL; concentration of IL-1α in media ([2]; 0.5% SDS applied topically): 275 pg/mL; cell viability (MTS assay) [3]: decreased cell viability
CC1=C(/C=C/C(C)=C/C=C/C(C)=C/C(=O)O)C(C)(C)CCC1 [trans-retinoic acid]		induce expression and secretion	induction of reporter gene containing IL-8 promoter sequences [4]: induced
Vitamin E	No effect		
C=C1/C(=C\C=C2/CCC[C@]3(C)[C@@H]([C@H](C)/C=C/[C@@H](O)C4CC4)CC[C@@H]23)C[C@@H](O)C[C@@H]1O [calcipotriol]		induce expression and secretion	
